How the values were obtained:
Format in all cases: cell-based
[1] = test system: E. coli ATCC 25922 (wild-type/QC strain); experiment: broth microdilution MIC assay, E. coli 25922; details: Escherichia coli, ATCC25922; read-out: MIC, E. coli 25922
Method in brief: (§1)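 Following CLSI methods, 2-fold compound dilutions are challenged with 5×10^5 CFU/mL bacteria in cation-supplemented Mueller-Hinton broth. After 16-20 hours at 37° C, the lowest well showing no bacterial growth is taken as the MIC.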

P. aeruginosa Paeβ-17 = experiment: broth microdilution MIC assay, P. aeruginosa Paeβ-17; details: Pseudomonas aeruginosa, read-out: MIC, P. aeruginosa Paeβ-17
Method in brief: as §1

S. aureus USA 600 = experiment: broth microdilution MIC assay, S. aureus USA600; details: Staphylococcus aureus; S. aureus USA600 (MRSA); read-out: MIC, S. aureus USA600
Method in brief: as §1

[2] = test system: S. aureus ATCC 33591 (methicillin-resistant); experiment: broth microdilution MIC assay, S. aureus 33591; details: Staphylococcus aureus, ATCC33591; S. aureus 33591, methicillin-resistant; read-out: MIC, S. aureus 33591
Method in brief: as §1

[3] = test system: Methicillin Resistant S. aureus (MRSA) clinical isolates; experiment: expanded MIC profiling, MRSA clinical isolates; details: Staphylococcus aureus
Method: (§2) To evaluate the activity of selected example compounds against clinical isolates of target species, standard cell-based broth microdilution MIC assays were employed. A panel of 20 clinical isolates of P. aeruginosa and 20 clinical isolates of Methicillin Resistant S. aureus (MRSA) from Lankenau Medical Center (Wynnewood, Pa.) were used. In the set of P. aeruginosa isolates, the compounds were also tested in combination with a β-lactamase inhibitor (taniborbactam), to evaluate the potential benefit of inhibiting β-lactamase enzymes. The assay was conducted in Cation Adjusted Mueller Hinton Broth (CAMHB, BD #212322, BD Diagnostic Systems, Sparks, Md.). Bacteria strains were grown for 3-5 hours in CAMHB. Compounds were added to a microtiter plate in 2-fold serial dilutions in CAMHB. For plates receiving β-lactamase inhibitor, taniborbactam was added to obtain a final fixed concentration of 4 μg/mL. Once the test articles were added, the plates were inoculated according to CLSI broth microdilution method. After inoculation, the plates were incubated for 16-20 hours at 37° C. then the Minimal Inhibitory Concentration (MIC) of the test compound is determined visually. Values for concentration required to inhibit growth of […] (MIC50) and 90% (MIC90) of isolates were determined.

S. aureus USA 300 = experiment: broth microdilution MIC assay, S. aureus USA300; details: Staphylococcus aureus; S. aureus USA300 (MRSA); read-out: MIC, S. aureus USA300
Method in brief: as §1

[4] = test system: P. aeruginosa ΔmexAB-OprM (an efflux pump knockout); experiment: broth microdilution MIC assay, P. aeruginosa ΔmexAB-OprM; details: Pseudomonas aeruginosa, read-out: MIC, P. aeruginosa ΔmexAB-OprM
Method in brief: as §1

[5] = test system: P. aeruginosa 35151 (hyper-permeable strain); experiment: broth microdilution MIC assay, P. aeruginosa 35151; details: Pseudomonas aeruginosa, read-out: MIC, P. aeruginosa 35151
Method in brief: as §1

[6] = test system: P. aeruginosa clinical isolates; experiment: expanded MIC profiling, P. aeruginosa clinical isolates; details: Pseudomonas aeruginosa
Method: as §2

[7] = panel of S. aureus (MRSA) isolates of Table 5
[8] = panel of 20 P. aeruginosa clinical isolates

C[C@@H](O)[C@H]1C(=O)N2C(C(=O)O)=C(S[C@@H]3CCN(C[C@H]4CC[C@H](NC(=N)N)CC4)C3)[C@H](C)[C@H]12 [Example 28, (4R,5S,6S)-3-(((R)-1-(((1R,4R)-4-guanidinocyclohexyl)methyl)pyrrolidin-3-yl)thio)-6-((R)-1-hydroxyethyl)-4-methyl-7-oxo-1-azabicyclo[3.2.0]hept-2-ene-2-carboxylic acid]
16 µg/mL: MIC ([3]; MRSA, S. aureus clinical isolate LH-SA45) | MIC ([6]; P. aeruginosa clinical isolate Lankenau 29)
0.25 µg/mL: MIC ([3]; MRSA, S. aureus clinical isolate LH-SA37)
1 to 4 µg/mL: MIC [2] | MIC (S. aureus USA 300)
0.5 µg/mL: MIC ([3]; MRSA, S. aureus clinical isolate LH-SA3) | MIC ([3]; MRSA, S. aureus clinical isolate LH-SA9) | MIC ([3]; MRSA, S. aureus clinical isolate LH-SA23) | MIC ([3]; MRSA, S. aureus clinical isolate LH-SA24) | MIC ([3]; MRSA, S. aureus clinical isolate LH-SA26) | MIC ([3]; MRSA, S. aureus clinical isolate LH-SA42) | MIC ([3]; MRSA, S. aureus clinical isolate LH-SA48) | MIC ([3]; MRSA, S. aureus clinical isolate LH-SA49) | MIC ([3]; MRSA, S. aureus clinical isolate LH-SA50) | MIC50 [3, 7] | MIC ([6]; P. aeruginosa clinical isolate Lankenau 12) | MIC ([6]; P. aeruginosa clinical isolate Lankenau 13)
8 µg/mL: MIC ([6]; P. aeruginosa clinical isolate Lankenau 28) | MIC90 [6, 8]
2 µg/mL: MIC ([3]; ATCC 33591 / MRSA, S. aureus ATCC-33591) | MIC ([3]; MRSA, S. aureus clinical isolate LH-SA29) | MIC ([3]; MRSA, S. aureus clinical isolate LH-SA33) | MIC ([3]; MRSA, S. aureus clinical isolate LH-SA39) | MIC ([3]; MRSA, S. aureus clinical isolate LH-SA40) | MIC ([3]; MRSA, S. aureus clinical isolate LH-SA41) | MIC ([6]; P. aeruginosa clinical isolate Lankenau 11) | MIC ([6]; P. aeruginosa clinical isolate Lankenau 23) | MIC ([6]; P. aeruginosa clinical isolate Lankenau 24) | MIC ([6]; P. aeruginosa clinical isolate Lankenau 25) | MIC ([6]; P. aeruginosa clinical isolate Lankenau 26) | MIC ([6]; P. aeruginosa clinical isolate Lankenau 27)
1 µg/mL: MIC ([6]; P. aeruginosa clinical isolate Lankenau 14) | MIC ([6]; P. aeruginosa clinical isolate Lankenau 15) | MIC ([6]; P. aeruginosa clinical isolate Lankenau 16) | MIC ([6]; P. aeruginosa clinical isolate Lankenau 17) | MIC ([6]; P. aeruginosa clinical isolate Lankenau 18) | MIC ([6]; P. aeruginosa clinical isolate Lankenau 19) | MIC ([6]; P. aeruginosa clinical isolate Lankenau 20) | MIC ([6]; P. aeruginosa clinical isolate Lankenau 21) | MIC ([6]; P. aeruginosa clinical isolate Lankenau 22) | MIC50 [6, 8]
8 to 32 µg/mL: MIC (P. aeruginosa Paeβ-17)
< 1 µg/mL: MIC [1] | MIC (S. aureus USA 600) | MIC [4] | MIC [5]
32 µg/mL: MIC ([6]; P. aeruginosa clinical isolate Lankenau 30)
4 µg/mL: MIC ([3]; MRSA, S. aureus clinical isolate LH-SA34) | MIC ([3]; MRSA, S. aureus clinical isolate LH-SA38) | MIC ([3]; MRSA, S. aureus clinical isolate LH-SA44) | MIC90 [3, 7]
